Test results: PubChem BioAssay (NCI)
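Exposure lasted 48 hours, with cells grown in 96-well plates and compounds tested at five concentrations. At the TGI there is no net growth.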

Legend:
Experiment in all cases: NCI tumour cell line growth inhibition, 48 h
786-0 renal = tested on: 786-0 renal
A549 NSCLC = tested on: A549 NSCLC
ACHN renal = tested on: ACHN renal
CAKI-1 renal = tested on: CAKI-1 renal
COLO 205 colon = tested on: COLO 205 colon
DU-145 prostate = tested on: DU-145 prostate
EKVX NSCLC = tested on: EKVX NSCLC
HCT-116 colon = tested on: HCT-116 colon
HCT-15 colon = tested on: HCT-15 colon
HL-60(TB) leukemia = tested on: HL-60(TB) leukemia
HOP-62 NSCLC = tested on: HOP-62 NSCLC
HOP-92 NSCLC = tested on: HOP-92 NSCLC
HS 578T breast = tested on: HS 578T breast
HT29 colon = tested on: HT29 colon
IGROV1 ovarian = tested on: IGROV1 ovarian
K-562 leukemia = tested on: K-562 leukemia
KM12 colon = tested on: KM12 colon
LOX IMVI melanoma = tested on: LOX IMVI melanoma
M14 melanoma = tested on: M14 melanoma
MALME-3M melanoma = tested on: MALME-3M melanoma
MCF7 breast = tested on: MCF7 breast
MDA-MB-231 breast = tested on: MDA-MB-231 breast
MDA-MB-435 = tested on: MDA-MB-435
NCI-H226 lung = tested on: NCI-H226 lung
NCI-H23 lung = tested on: NCI-H23 lung
NCI-H460 lung = tested on: NCI-H460 lung
NCI-H522 lung = tested on: NCI-H522 lung
NCI/ADR-RES ovarian = tested on: NCI/ADR-RES ovarian
OVCAR-3 ovarian = tested on: OVCAR-3 ovarian
OVCAR-4 ovarian = tested on: OVCAR-4 ovarian
OVCAR-5 ovarian = tested on: OVCAR-5 ovarian
OVCAR-8 ovarian = tested on: OVCAR-8 ovarian
PC-3 prostate = tested on: PC-3 prostate
RXF 393 renal = tested on: RXF 393 renal
SF-268 CNS = tested on: SF-268 CNS
SF-295 CNS = tested on: SF-295 CNS
SF-539 CNS = tested on: SF-539 CNS
SK-MEL-2 melanoma = tested on: SK-MEL-2 melanoma
SK-MEL-28 melanoma = tested on: SK-MEL-28 melanoma
SK-MEL-5 melanoma = tested on: SK-MEL-5 melanoma
SK-OV-3 ovarian = tested on: SK-OV-3 ovarian
SN12C renal = tested on: SN12C renal
SNB-19 CNS = tested on: SNB-19 CNS
SNB-75 CNS = tested on: SNB-75 CNS
SR leukemia = tested on: SR leukemia
SW-620 colon = tested on: SW-620 colon
T-47D breast = tested on: T-47D breast
TK-10 renal = tested on: TK-10 renal
U251 CNS = tested on: U251 CNS
UACC-257 melanoma = tested on: UACC-257 melanoma
UACC-62 melanoma = tested on: UACC-62 melanoma
UO-31 renal = tested on: UO-31 renal
A498 renal = tested on: A498 renal
BT-549 breast = tested on: BT-549 breast
CCRF-CEM leukemia = tested on: CCRF-CEM leukemia
MOLT-4 leukemia = tested on: MOLT-4 leukemia
RPMI-8226 leukemia = tested on: RPMI-8226 leukemia

With `COc1cc2c(cc1OCCCCOc1cc3nc(C)nc(Cl)c3cc1OC)N=C[C@@H]1CCCN1C2=O` the TGI (786-0 renal) was 12.4 µM, the TGI (A549 NSCLC) was 7.56 µM and the TGI (ACHN renal) was 8.82 µM. The TGI (CAKI-1 renal) was 5.82 µM, the TGI (COLO 205 colon) was 45.4 µM and the TGI (DU-145 prostate) was 13.2 µM. For the same compound, the TGI (EKVX NSCLC) was 19.4 µM, the TGI (HCT-116 colon) was 5.59 µM and the TGI (HCT-15 colon) was 8.78 µM. The TGI (HL-60(TB) leukemia) was 7.43 µM, the TGI (HOP-62 NSCLC) was 7.24 µM and the TGI (HOP-92 NSCLC) was 5.52 µM. It also gave a TGI (HS 578T breast) of 5.63 µM, a TGI (HT29 colon) of 10.2 µM and a TGI (IGROV1 ovarian) of 4.6 µM. For the same compound, the TGI (K-562 leukemia) was 4.79 µM, the TGI (KM12 colon) was 4.44 µM and the TGI (LOX IMVI melanoma) was 3.04 µM. It also gave a TGI (M14 melanoma) of 3.5 µM, a TGI (MALME-3M melanoma) of 3.4 µM and a TGI (MCF7 breast) of over 100 µM. The TGI (MDA-MB-231 breast) was 3.43 µM, the TGI (MDA-MB-435) was 2.97 µM and the TGI (NCI-H226 lung) was 4.07 µM. The TGI (NCI-H23 lung) was 3.37 µM, the TGI (NCI-H460 lung) was 45.6 µM and the TGI (NCI-H522 lung) was 2.12 µM. It also gave a TGI (NCI/ADR-RES ovarian) of 6.87 µM, a TGI (OVCAR-3 ovarian) of 4.7 µM and a TGI (OVCAR-4 ovarian) of 11.1 µM. For the same compound, the TGI (OVCAR-5 ovarian) was 5.3 µM, the TGI (OVCAR-8 ovarian) was 5.48 µM and the TGI (PC-3 prostate) was 8.91 µM. The TGI (RXF 393 renal) was 4.64 µM, the TGI (SF-268 CNS) was 8.44 µM and the TGI (SF-295 CNS) was 6.76 µM. For the same compound, the TGI (SF-539 CNS) was 4.2 µM, the TGI (SK-MEL-2 melanoma) was 3.6 µM and the TGI (SK-MEL-28 melanoma) was 5.54 µM. The TGI (SK-MEL-5 melanoma) was 3.4 µM, the TGI (SK-OV-3 ovarian) was over 100 µM and the TGI (SN12C renal) was 4.8 µM. It also gave a TGI (SNB-19 CNS) of 33.1 µM, a TGI (SNB-75 CNS) of 3.34 µM and a TGI (SR leukemia) of 1.96 µM. The TGI (SW-620 colon) was 10.1 µM, the TGI (T-47D breast) was 31.8 µM and the TGI (TK-10 renal) was 6.04 µM. For the same compound, the TGI (U251 CNS) was 6.88 µM, the TGI (UACC-257 melanoma) was 4.04 µM and the TGI (UACC-62 melanoma) was 2.8 µM. It also gave a TGI (UO-31 renal) of 4.73 µM.
`CCOC(=O)C1C=C1C(C)(C)O` (stereo unspecified) was tested, and the TGI (786-0 renal) was over 10 µM, the TGI (A498 renal) was over 10 µM and the TGI (A549 NSCLC) was over 10 µM. For the same compound, the TGI (ACHN renal) was over 10 µM, the TGI (BT-549 breast) was over 10 µM and the TGI (CCRF-CEM leukemia) was over 10 µM. For the same compound, the TGI (DU-145 prostate) was over 10 µM, the TGI (EKVX NSCLC) was over 10 µM and the TGI (HCT-15 colon) was over 10 µM. It also gave a TGI (HL-60(TB) leukemia) of over 10 µM, a TGI (HOP-62 NSCLC) of over 10 µM and a TGI (HOP-92 NSCLC) of over 10 µM. For the same compound, the TGI (HS 578T breast) was over 10 µM, the TGI (HT29 colon) was over 10 µM and the TGI (IGROV1 ovarian) was over 10 µM. The TGI (K-562 leukemia) was over 10 µM, the TGI (KM12 colon) was over 10 µM and the TGI (LOX IMVI melanoma) was over 10 µM. It also gave a TGI (M14 melanoma) of over 10 µM, a TGI (MALME-3M melanoma) of over 10 µM and a TGI (MCF7 breast) of over 10 µM. The TGI (MDA-MB-435) was over 10 µM, the TGI (MOLT-4 leukemia) was over 10 µM and the TGI (NCI-H226 lung) was over 10 µM. It also gave a TGI (NCI-H23 lung) of over 10 µM, a TGI (NCI-H460 lung) of over 10 µM and a TGI (OVCAR-3 ovarian) of over 10 µM. For the same compound, the TGI (OVCAR-5 ovarian) was over 10 µM, the TGI (OVCAR-8 ovarian) was over 10 µM and the TGI (PC-3 prostate) was over 10 µM. For the same compound, the TGI (RPMI-8226 leukemia) was over 10 µM, the TGI (RXF 393 renal) was over 10 µM and the TGI (SF-268 CNS) was over 10 µM. For the same compound, the TGI (SF-295 CNS) was over 10 µM, the TGI (SF-539 CNS) was over 10 µM and the TGI (SK-MEL-2 melanoma) was over 10 µM. The TGI (SK-MEL-28 melanoma) was over 10 µM, the TGI (SK-MEL-5 melanoma) was over 10 µM and the TGI (SK-OV-3 ovarian) was over 10 µM. It also gave a TGI (SN12C renal) of over 10 µM, a TGI (SNB-19 CNS) of over 10 µM and a TGI (SNB-75 CNS) of over 10 µM. The TGI (SR leukemia) was over 10 µM, the TGI (SW-620 colon) was over 10 µM and the TGI (T-47D breast) was over 10 µM. The TGI (TK-10 renal) was over 10 µM, the TGI (U251 CNS) was over 10 µM and the TGI (UACC-257 melanoma) was over 10 µM. It also gave a TGI (UO-31 renal) of over 10 µM.
